In paper PMC4726707, “Effect of Copper and Zinc on the Single Molecule Self-Affinity of Alzheimer’s Amyloid-β Peptides” (PLoS ONE, 2016):
“Also recorded” adds a separate entry of the source. Where two headings read alike, the source gives them in different places.

Columns and labels:
amyloid-β (1–42) (Aβ42) = molecular target: T1, amyloid-β (1–42) (Aβ42) (Homo sapiens, UniProt P05067); test: Single molecule force spectroscopy / dynamic force spectroscopy (AFM) of Aβ-Aβ dimer dissociation, Friddle-De Yoreo model; format: binding; settings: for Kd: read-out: chemical dissociation constant, Kd; for change of Aβ-Aβ self-affinity / dimer dissociation constant by metal ion: 20 nM (nanomolar) metal ion vs aqueous HEPES buffer control; for change of association rate (kon) of Aβ-Aβ vs aqueous control: 20 nM metal ion, kon = koff/Kd
T1 construct: purchased rPeptide (Bogart USA)
Source text: In this work we used single molecule force spectroscopy (SMFS) to further elucidate the mechanism of the very initial stage of amyloid aggregation—the dimerization of two peptides. SMFS is a nanoscale technique whereby an atomic force microscopy (AFM) tip is used to probe the unbinding of two molecules of interest—one bound to the surface, the other to the tip. When AFM tip is brought to the surface the binding between two Aβ monomers occur and when the tip is retracted the unbinding forces between two monomers are measured. To extract kinetic and thermodynamic parameters governing the system, the retraction velocity of the tip is varied. This iteration of SMFS is referred to as dynamic force spectroscopy (DFS).
We prepared our experiments in accordance with our previous force spectroscopy experiments, of which the methods are detailed extensively in [23]. Briefly, Veeco MLCT SiNi AFM cantilever were cleaned by soaking in ethanol and exposing to UV light for 30 minutes. […] The mica and cantilevers were then soaked for 3 hours in a solution of 3400 MW NHS-PEG-MAL (Laysan Bio, Alabaster GA) solution. […] The surface of the cantilever tip and mica surface were soaked in the Aβ solution for 30 minutes. Following rinsing, unreacted maleimide groups were quenched with b-merceptoethanol. Tips and mica were then rinsed and stored in HEPES buffer.
Typical cantilever spring constants were between 8 and 120 mN/m but varied with each individual experiment. Spring constants were measured using Hutter’s thermal noise method. A series of force curves were taken with an approach and retract velocity varying between 50 and 10,000 nm/s resulting in loading rates between 0.3 and 300 nN/s. Following the collection of an Aβ42 data set in HEPES buffer, a 20 nM metal ionic solution (Cu^2+ or Zn^2+) in HEPES buffer was added to the liquid cell of the AFM and additional force curves were collected for comparison.
JPK data analysis software was used to analyze force curves. […] The force curves were smoothed, the x-axis leveled, both axes set to 0, and the force curve corrected for cantilever bending to obtain tip-sample separation, z. A WLC fit was obtained for each force curve while rupture force and contour length data were recorded. Data was sorted in order of rupture force and the highest rupture force data were eliminated using Poisson statistics to eliminate force curves that were likely the result of simultaneous multiple unbinding events.
Loading rates were corrected to account for the effect of the PEG linker. We fit the Friddle-De Yoreo reversible binding equation to the entirety of the dataset (comprised of the rupture force and corrected loading rate of each force curve) using a Levenberg-Marquardt best fit algorithm in Origin 9.0 graphing software. For pooled datasets, we used the mean spring constant of the cantilevers used in the experiments. We extracted the equilibrium force, feq, the thermal scaling factor, fβ, and the kinetic off rate, koff(feq) at the equilibrium force as well as standard errors from the dataset using the graphing software. These parameters were then used to calculate parameters ΔG (the difference in free energy between the bound and free states), xβ (the width of the energy barrier), koff (the kinetic dissociation, or off- rate), and Kd (the dissociation constant) using the equations used in [34, 35].
Analysis of variance (ANOVA) testing was conducted on ΔG, xβ, koff, and Kd. Following the ANOVA test, a post hoc Welsh’s t-test was conducted to compare the parameters for the aqueous experiments compared to the copper experiments and for the aqueous environment experiments compared to the zinc experiments.

Aβ [1] = settings: cited from earlier work
Source text: The role of metal ions on amyloid aggregation and toxicity has been studied extensively. […] Cu^2+ ions increase neurotoxicity by both accelerating amyloid aggregation and increasing oxidative stress. This increased propensity of Aβ to aggregate in a Cu^2+ rich environment has been attributed to Cu^2+ ions causing Aβ to move closer to its isoelectric point, thereby inducing aggregation. […] In this work, rather than determining the affinity of metal ions to the Aβ monomer, we calculated the self-affinity of two Aβ42 peptides in the presence of copper and zinc ions.

Aβ (1–42) = settings: with Cu^2+ ions; cited from earlier work
Source text: Our previous results led us to hypothesize that since […] AD is largely a function of abnormal Aβ clearance, increased affinity of Aβ would make amyloid clearance considerably more problematic. In this work we used single molecule force spectroscopy (SMFS) to further elucidate the mechanism of the very initi ...

Aβ [2] = settings: cited from earlier work; remark: listed apart in the source
Source text: Despite the well established effect ...

Row | Compound | ΔG (free energy difference between bound and unbound states) for Aβ-Aβ unbinding (amyloid-β (1–42) (Aβ42); aqueous HEPES 50 mM buffer, pH 7.4, 150 mM NaCl, no metal ion added) [kBT] | Kd (amyloid-β (1–42) (Aβ42); control, Aβ dimerization in HEPES buffer) [µM] | Kd (amyloid-β (1–42) (Aβ42); with 20 nM Cu^2+) [µM] | ΔG (free energy difference between bound and unbound states) for Aβ-Aβ unbinding (amyloid-β (1–42) (Aβ42); with Cu^2+ [20nM] in HEPES buffer pH 7.4) [kBT] | ΔG (free energy difference between bound and unbound states) for Aβ-Aβ unbinding (amyloid-β (1–42) (Aβ42); with Zn^2+ [20nM] in HEPES buffer pH 7.4) [kBT] | change of Aβ-Aβ self-affinity / dimer dissociation constant by metal ion (amyloid-β (1–42) (Aβ42); listed as copper) | change of association rate (kon) of Aβ-Aβ vs aqueous control (amyloid-β (1–42) (Aβ42)) | Cu^2+-Aβ affinity (Aβ [1]) | Cu^2+-Aβ affinity (Aβ [1]; listed as Copper) | unbinding force between two Aβ (1–42) peptides (Aβ (1–42)) | nucleation and elongation of amyloid fibril formation (Aβ [2]; substoichiometric concentrations of Cu^2+ ions) | Aβ aggregation onset (Aβ [2]; trace concentrations of copper vs aqueous without metal ions) | change of Aβ-Aβ self-affinity / dimer dissociation constant by metal ion (amyloid-β (1–42) (Aβ42)) | change of Aβ-Aβ self-affinity / dimer dissociation constant by metal ion (amyloid-β (1–42) (Aβ42); listed as zinc) | change of height of the energy barrier (amyloid-β (1–42) (Aβ42); with Zn^2+ 20 nM vs aqueous control)
1 | amyloid-β (1–42) [Aβ-Aβ] | 7.83 ± 3.03 | 402 | 173 | 8.66 ± 1.62 | 4.89 ± 1.35 | – | – | – | – | – | – | – | – | – | –
2 | [Cu+2] [Cu^2+, copper] | – | – | – | – | – | do not change the single molecule affinity of Aβ to another Aβ peptide in a statistically significant way; also recorded: does not change the dissociation constant by a statistically significant amount; also recorded: did not measure a significant effect | approximately half an order of magnitude higher; also recorded: approximately five times higher than the association rate in the control experiments | nanomolar to picomolar range | nano- to picomolar range | increased the unbinding force between two Aβ (1–42) peptides | induce acceleration in both the nucleation and elongation phases of amyloid fibril formation | Aβ begins to aggregate instantly compared to the characteristic lag period | – | – | –
3 | [Zn+2] [Zn^2+, zinc] | – | – | – | – | – | – | half an order of magnitude lower; also recorded: one-fifth of the control experiment | – | – | – | – | – | decreases the affinity of Aβ-Aβ interactions by an order of magnitude | decrease the affinity of Aβ-Aβ by an order of magnitude; also recorded: increases the dimer dissociation constant (which corresponds to a decreased monomer-monomer chemical affinity) by an order of magnitude | decreased the height of the energy barrier
